Assay [1] has as its target T1, c-Met (cytoplasmic domain) (Homo sapiens, UniProt P08581).
T1 construct: 10 ng/mL c-Met (cytoplasmic domain, Invitrogen Corporation #PV3143); purchased Invitrogen Corporation PV3143
The assay is described as follows: c-Met Kinase Assay (same methods as for ALK, with modifications). Format: biochemical. The method in brief: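 Europium-labeled PT66 antibody (Eu-N1) detects substrate phosphorylation on wells coated with phospholipase C-γ at 10 μg/mL. The kinase, the cytoplasmic domain of c-Met at 10 ng/mL, starts the reaction, which proceeds 15 minutes at 37° C.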

Assay [2] addresses T2, baculovirus-expressed ALK (Homo sapiens, UniProt Q9UM73).
T2 construct: host or cells: baculovirus expression system
The assay is described as follows: ALK Kinase Assay (ELISA-type, time-resolved fluorescence). It counts as biochemical. The procedure, abridged: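 Plates coated with phospholipase C-γ substrate (10 μg/mL in TBS); reaction started with 30 ng/ml ALK and run 15 min at 37° C. Phosphorylated substrate detected with Eu-N1-labeled PT66 antibody. IC50 from sigmoidal variable-slope fit of percent inhibition vs log concentration.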
In general terms: ELISA stands for enzyme-linked immunosorbent assay.

Setting [3] is: c-Met kinase inhibition, 1 μM ATP, read-out: cMet Activity.
Where [4] appears, read: ALK kinase inhibition, 1 μM ATP, read-out: ALK Activity.
[5] abbreviates: c-Met kinase inhibition, 1 μM ATP (Km level), read-out: cMet Activity.
Where [6] appears, read: ALK kinase inhibition, 1 μM ATP (Km level), read-out: ALK Activity.
[7] abbreviates: 1 μM ATP (Km level), read-out: cMet Activity (c-Met Kinase Inhibition, IC50).
[8] abbreviates: 1 μM ATP (Km level), read-out: ALK Activity (ALK Kinase Inhibition, IC50).

Where two headings read alike, the source gives them in different places.

T2 sequence (Q9UM73 19-1620): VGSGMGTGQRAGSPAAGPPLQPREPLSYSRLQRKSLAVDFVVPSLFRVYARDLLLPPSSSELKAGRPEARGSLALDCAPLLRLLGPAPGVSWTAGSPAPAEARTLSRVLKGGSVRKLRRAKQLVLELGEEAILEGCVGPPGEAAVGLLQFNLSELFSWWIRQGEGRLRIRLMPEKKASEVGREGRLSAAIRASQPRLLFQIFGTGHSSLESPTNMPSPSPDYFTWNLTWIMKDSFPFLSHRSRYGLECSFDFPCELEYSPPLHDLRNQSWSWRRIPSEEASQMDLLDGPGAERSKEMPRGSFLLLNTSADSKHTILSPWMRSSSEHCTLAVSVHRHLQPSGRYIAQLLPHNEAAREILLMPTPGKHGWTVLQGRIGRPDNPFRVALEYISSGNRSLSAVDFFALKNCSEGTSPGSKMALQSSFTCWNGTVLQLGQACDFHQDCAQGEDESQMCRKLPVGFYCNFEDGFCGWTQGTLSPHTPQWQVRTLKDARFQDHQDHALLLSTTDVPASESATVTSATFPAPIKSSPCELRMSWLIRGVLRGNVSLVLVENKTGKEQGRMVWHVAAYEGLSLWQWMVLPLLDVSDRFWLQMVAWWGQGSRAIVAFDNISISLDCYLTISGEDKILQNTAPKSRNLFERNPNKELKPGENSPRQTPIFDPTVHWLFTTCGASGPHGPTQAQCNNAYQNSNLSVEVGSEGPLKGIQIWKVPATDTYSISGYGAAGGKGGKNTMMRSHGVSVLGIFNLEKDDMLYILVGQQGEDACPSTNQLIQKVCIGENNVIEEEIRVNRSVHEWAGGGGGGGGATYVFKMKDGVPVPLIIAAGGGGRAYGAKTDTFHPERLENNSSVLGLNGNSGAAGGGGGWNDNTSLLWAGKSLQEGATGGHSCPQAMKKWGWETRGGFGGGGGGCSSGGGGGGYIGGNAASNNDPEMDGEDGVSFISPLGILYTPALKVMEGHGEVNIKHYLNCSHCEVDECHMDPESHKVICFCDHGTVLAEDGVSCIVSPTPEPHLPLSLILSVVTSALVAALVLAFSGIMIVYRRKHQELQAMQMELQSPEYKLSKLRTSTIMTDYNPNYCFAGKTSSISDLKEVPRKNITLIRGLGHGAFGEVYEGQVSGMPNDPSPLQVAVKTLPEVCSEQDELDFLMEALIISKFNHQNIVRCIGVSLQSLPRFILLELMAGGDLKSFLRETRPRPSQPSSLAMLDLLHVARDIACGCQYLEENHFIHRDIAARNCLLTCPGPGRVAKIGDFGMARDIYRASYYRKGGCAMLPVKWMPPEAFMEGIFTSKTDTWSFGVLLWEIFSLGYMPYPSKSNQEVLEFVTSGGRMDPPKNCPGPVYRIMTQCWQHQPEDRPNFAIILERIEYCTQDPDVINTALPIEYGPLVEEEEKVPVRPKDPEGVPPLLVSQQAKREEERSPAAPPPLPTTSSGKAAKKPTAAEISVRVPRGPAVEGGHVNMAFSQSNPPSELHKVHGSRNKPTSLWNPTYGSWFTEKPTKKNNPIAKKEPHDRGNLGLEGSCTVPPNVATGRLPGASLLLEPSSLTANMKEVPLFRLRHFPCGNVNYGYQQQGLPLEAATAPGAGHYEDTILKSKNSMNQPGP
T1 sequence (P08581 956-1390 limits assumed): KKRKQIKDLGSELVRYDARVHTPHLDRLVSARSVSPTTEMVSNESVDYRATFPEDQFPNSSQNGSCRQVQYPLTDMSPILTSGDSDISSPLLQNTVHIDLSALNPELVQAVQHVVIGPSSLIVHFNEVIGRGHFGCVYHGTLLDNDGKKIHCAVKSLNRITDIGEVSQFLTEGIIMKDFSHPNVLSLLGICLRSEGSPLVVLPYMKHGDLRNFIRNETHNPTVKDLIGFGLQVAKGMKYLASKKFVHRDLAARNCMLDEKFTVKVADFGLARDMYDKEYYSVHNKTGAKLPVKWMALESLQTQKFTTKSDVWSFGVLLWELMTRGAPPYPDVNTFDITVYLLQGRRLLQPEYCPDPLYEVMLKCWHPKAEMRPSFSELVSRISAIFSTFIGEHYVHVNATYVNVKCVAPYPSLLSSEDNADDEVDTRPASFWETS

Regarding `CCN1CC(=O)Nc2cc(Nc3ncc(Cl)c(Nc4c(C)csc4C(=O)NC)n3)ccc2C1` [Example 1865, 3-[5-Chloro-2-(4-ethyl-2-oxo-2,3,4,5-tetrahydro-1H-benzo[e][1,4]diazepin-8-ylamino)-pyrimidin-4-ylamino]-4-methyl-thiophene-2-carboxylic acid methylamide], the IC50 in assay [1] (setting [3]) and in assay [2] (setting [4]) was 100 to 1000 nM each time.

Take `CNC(=O)c1scc(C)c1Nc1nc(Nc2ccc3c(c2)NC(=O)CN(C(=O)C(F)(F)F)C3)ncc1Cl` [Example 1866, 3-{5-Chloro-2-[2-oxo-4-(2,2,2-trifluoro-acetyl)-2,3,4,5-tetrahydro-1H-benzo[e][1,4]diazepin-8-ylamino]-pyrimidin-4-ylamino}-4-methyl-thiophene-2-carboxylic acid methylamide]: the IC50 in assay [1] (setting [3]) was 100 to 1000 nM; in assay [2] (setting [4]), 1000 to 10000 nM.

Regarding `CNC(=O)c1ccccc1Nc1nc(Nc2ccc3c(c2)NC(=O)CN(C)C3)ncc1Cl` [Example 1867, 2-[5-Chloro-2-(4-methyl-2-oxo-2,3,4,5-tetrahydro-1H-benzo[e][1,4]diazepin-8-ylamino)-pyrimidin-4-ylamino]-N-methyl-benzamide], the IC50 was below 100 nM in assay [1] (setting [3]) and 1000 to 10000 nM in assay [2] (setting [4]).

As to `CNC(=O)c1scc(C)c1Nc1nc(Nc2ccc3c(c2)NC(=O)CN(C)C3)ncc1Cl` [Example 1868, 3-[5-Chloro-2-(4-methyl-2-oxo-2,3,4,5-tetrahydro-1H-benzo[e][1,4]diazepin-8-ylamino)-pyrimidin-4-ylamino]-4-methyl-thiophene-2-carboxylic acid methylamide], the figures for the IC50 in assay [1] (setting [3]) and in assay [2] (setting [4]) were below 100 nM and 100 to 1000 nM, respectively.

For the compound `CCOC(=O)N1CC(=O)Nc2cc(Nc3ncc(Cl)c(Nc4c(F)cccc4C(=O)NC)n3)ccc2C1` [Example 1869, 8-[5-Chloro-4-(2-fluoro-6-methylcarbamoyl-phenylamino)-pyrimidin-2-ylamino]-2-oxo-1,2,3,5-tetrahydro-benzo[e][1,4]diazepine-4-carboxylic acid ethyl ester], the results for the IC50 in assay [1] (setting [3]) and in assay [2] (setting [4]) were 100 to 1000 nM and 1000 to 10000 nM, respectively.

For the compound `CCN1CC(=O)N(CC)c2cc(Nc3ncc(Cl)c(Nc4c(F)cccc4C(=O)NC)n3)ccc2C1` [Example 1870, 2-[5-Chloro-2-(1,4-diethyl-2-oxo-2,3,4,5-tetrahydro-1H-benzo[e][1,4]diazepin-8-ylamino)-pyrimidin-4-ylamino]-3-fluoro-N-methyl-benzamide], the figures for the IC50 in assay [1] (setting [3]) and in assay [2] (setting [4]) were below 100 nM and 100 to 1000 nM, respectively.

Consider `CCN1C(=O)CN(S(C)(=O)=O)Cc2ccc(Nc3ncc(Cl)c(Nc4ccsc4C(=O)NC)n3)cc21` [Example 1872, 3-[5-Chloro-2-(1-ethyl-4-methanesulfonyl-2-oxo-2,3,4,5-tetrahydro-1H-benzo[e][1,4]diazepin-8-ylamino)-pyrimidin-4-ylamino]-thiophene-2-carboxylic acid methylamide], for which the IC50 in assay [1] (setting [3]) and in assay [2] (setting [4]) was 1000 to 10000 nM throughout.

For `CCN1C(=O)CN(CCO)Cc2ccc(Nc3ncc(Cl)c(Nc4c(F)cccc4C(=O)NC)n3)cc21` [Example 1873, 2-{5-Chloro-2-[1-ethyl-4-(2-hydroxy-ethyl)-2-oxo-2,3,4,5-tetrahydro-1H-benzo[e][1,4]diazepin-8-ylamino]-pyrimidin-4-ylamino}-3-fluoro-N-methyl-benzamide], the results for the IC50 in assay [1] (setting [3]) and in assay [2] (setting [4]) were below 100 nM and 100 to 1000 nM, respectively.

For the compound `CCN1CC(=O)N(CC)c2cc(Nc3ncc(Cl)c(Nc4c(C)csc4C(=O)NC)n3)ccc2C1` [Example 1874, 3-[5-chloro-2-(1,4-diethyl-2-oxo-2,3,4,5-tetrahydro-1H-benzo[e][1,4]diazepin-8-ylamino)-pyrimidin-4-ylamino]-4-methyl-thiophene-2-carboxylic acid methylamide], the IC50 was below 100 nM in assay [1] (setting [3]) and 100 to 1000 nM in assay [2] (setting [4]).

As to `CCOC(=O)N1CC(=O)N(CC)c2cc(Nc3ncc(Cl)c(Nc4c(F)cccc4C(=O)NC)n3)ccc2C1` [Example 1875, 8-[5-Chloro-4-(2-fluoro-6-methylcarbamoyl-phenylamino)-pyrimidin-2-ylamino]-1-ethyl-2-oxo-1,2,3,5-tetrahydro-benzo[e][1,4]diazepine-4-carboxylic acid ethyl ester], the IC50 in assay [1] (setting [5]) was below 100 nM; in assay [2] (setting [6]), 1000 to 10000 nM.

For the compound `C#CCNC(=O)c1cccc(F)c1Nc1nc(Nc2ccc3c(c2)N(CC)C(=O)CN(C(=O)OCC)C3)ncc1Cl` [Example 1876, 8-[5-Chloro-4-(2-fluoro-6-prop-2-ynylcarbamoyl-phenylamino)-pyrimidin-2-ylamino]-1-ethyl-2-oxo-1,2,3,5-tetrahydro-benzo[e][1,4]diazepine-4-carboxylic acid ethyl ester], the IC50 in assay [1] (setting [5]) was below 100 nM; in assay [2] (setting [6]), 100 to 1000 nM.

Turning to `CNC(=O)c1cccc(F)c1Nc1nc(Nc2ccc3c(c2)N(C(C)=O)CC(=O)NC3)ncc1Cl` [Example 1877, 2-[2-(1-Acetyl-3-oxo-2,3,4,5-tetrahydro-1H-benzo[e][1,4]diazepin-8-ylamino)-5-chloro-pyrimidin-4-ylamino]-3-fluoro-N-methyl-benzamide], the IC50 in assay [1] (setting [5]) and in assay [2] (setting [6]) was below 100 nM each time.

On to `CNC(=O)c1sccc1Nc1nc(Nc2ccc3c(c2)N(C(C)=O)CC(=O)NC3)ncc1Cl` [Example 1878, 3-[2-(1-Acetyl-3-oxo-2,3,4,5-tetrahydro-1H-benzo[e][1,4]diazepin-8-ylamino)-5-chloro-pyrimidin-4-ylamino]-thiophene-2-carboxylic acid methyl amide], for which the IC50 in assay [1] (setting [5]) was below 100 nM; in assay [2] (setting [6]) it was 100 to 1000 nM.

On to `CCN1CCN(C(C)=O)c2cc(Nc3ncc(Cl)c(Nc4c(F)cccc4C(=O)NC)n3)ccc2C1` [Example 1879, 2-[2-(1-Acetyl-4-ethyl-2,3,4,5-tetrahydro-1H-benzo[e][1,4]diazepin-8-ylamino)-5-chloro-pyrimidin-4-ylamino]-3-fluoro-N-methyl-benzamide], for which the IC50 was below 100 nM in assay [1] (setting [5]) and 100 to 1000 nM in assay [2] (setting [6]).

As to `CNC(=O)c1ccccc1Nc1nc(Nc2ccc3c(c2)C(=O)NCCO3)ncc1Cl` [Example 1880, 2-[5-Chloro-2-(5-oxo-2,3,4,5-tetrahydro-benzo[f][1,4]oxazepin-7-ylamino)-pyrimidin-4-ylamino]-N-methyl-benzamide], the IC50 in assay [1] (setting [5]) and in assay [2] (setting [6]) was below 100 nM in each case.

`CCN1C(=O)OCCc2ccc(Nc3ncc(Cl)c(Nc4ccccc4C(=O)NC)n3)cc21` [Example 1881, 2-[5-Chloro-2-(5-ethyl-6-oxo-5,6,8,9-tetrahydro-7-oxa-5-aza-benzocyclohepten-3-ylamino)-pyrimidin-4-ylamino]-N-methyl-benzamide]: the IC50 in assay [1] (setting [5]) and in assay [2] (setting [6]) was 100 to 1000 nM in each case.

For the compound `CCN1C(=O)OCCc2ccc(Nc3ncc(Cl)c(Nc4c(F)cccc4C(=O)NC)n3)cc21` [Example 1882, 2-[5-Chloro-2-(5-ethyl-6-oxo-5,6,8,9-tetrahydro-7-oxa-5-aza-benzocyclohepten-3-ylamino)-pyrimidin-4-ylamino]-3-fluoro-N-methyl-benzamide], the IC50 in assay [1] (setting [5]) and in assay [2] (setting [6]) was below 100 nM each time.

Turning to `CCN1C(=O)OCCc2ccc(Nc3ncc(Cl)c(Nc4ccsc4C(=O)NC)n3)cc21` [Example 1883, 3-[5-Chloro-2-(5-ethyl-6-oxo-5,6,8,9-tetrahydro-7-oxa-5-aza-benzocyclohepten-3-ylamino)-pyrimidin-4-ylamino]-thiophene-2-carboxylic acid methylamide], the IC50 in assay [1] (setting [5]) and in assay [2] (setting [6]) was below 100 nM in each case.

Consider “(1S,2S,3R,4R)-3-[2-(3-Carbamoylmethyl-8-methoxy-2,3,4,5-tetrahydro-1H-benzo[d]azepin-7-ylamino)-5-chloro-pyrimidin-4-ylamino]-bicyclo[2.2.1]hept-5-ene-2-carboxylic acid amide [Example 813]”, for which the IC50 in assay [1] (setting [7]) was above 10000 nM; in assay [2] (setting [8]), below 100 nM.

In the case of “(1S,2S,3R,4R)-3-[5-Chloro-2-[4-cyclopropylmethyl-7-methoxy-2,3,4,5-tetrahydro-1H-benzo[e][1,4]diazepin-8-ylamino)-pyrimidin-4-ylamino]-bicyclo(2.2.1)hept-5-ene-2-carboxylic acid amide [Example 747]”, the IC50 in assay [1] (setting [7]) is above 10000 nM; in assay [2] (setting [8]), below 100 nM.

Take “(1S,2S,3R,4R)-3-{5-Chloro-2-[6-(2-hydroxy-ethylamino)-1-methoxy-6,7,8,9-tetrahydro-5H-benzocyclohepten-2-ylamino]-pyrimidin-4-ylamino}-bicyclo[2.2.1]hept-5-ene-2-carboxylic acid amide [Example 960]”: the IC50 was above 10000 nM in assay [1] (setting [7]) and below 100 nM in assay [2] (setting [8]).

Regarding “(1S,2S,3R,4R)-3-{5-Chloro-2-[7-(2,2-difluoro-ethylamino)-6,7,8,9-tetrahydro-5H-benzocyclohepten-2-ylamino]-pyrimidin-4-ylamino}-bicyclo[2.2.1]hept-5-ene-2-carboxylic acid amide [Example 677]”, the IC50 in assay [1] (setting [7]) is above 10000 nM; in assay [2] (setting [8]), below 100 nM.

Take “(1S,2S,3R,4R)-3-{5-Chloro-2-[7-(4-methyl-piperazin-1-yl)-6,7,8,9-tetrahydro-5H-benzocyclohepten-2-ylamino]-pyrimidin-4-ylamino}-bicyclo[2.2.1]hept-5-ene-2-carboxylic acid amide [Example 893]”: the IC50 in assay [1] (setting [7]) was 100 to 1000 nM; in assay [2] (setting [8]), below 100 nM.

The values are drawn from US8148391B2 (Cephalon, Inc., priority 2006, dated 2012).
